Reference: patent US6436421B1, “Pesticide compositions” (priority 1997, dated 2002)
Read-outs that look alike come from different tables or passages of the source.

Key:
[1] = assay type: physicochemical
Protocol: One method to evaluate the efficacy of a pesticide adjuvant is to measure its affect on the ability of the pesticide composition to resist wash-off from a surface. One skilled in the art will recognize that a pesticide which remains on the surface of a plant will be expected to have increased efficacy.
A suspension of the pesticide formulation was prepared by adding a premix of water and surfactant, with and without the polymer additives, followed by vigorous shaking of the mixtures by hand. Pieces of Parafilm™M laboratory film, a very soft, flexible, and hydrophobic film, were taped to plastic petrie dishes. The suspensions were sprayed with an automated sprayer as the petrie dishes with attached film were moved at a standard rate below the sprayer. The spray residues were allowed to dry, and a second application of spray was applied. One set of films was exposed, at an inclination of 45 degrees, to approximately 25 mm of water applied by a spray bar (equipped with TX-4 cone-type spray nozzles) that moved back and forth over the samples for a period of about 1 hour. The exposed films were allowed to dry. Another set of films was not exposed to water.
Infra-red spectra of the films were obtained by an Attenuated Total Reflection (ATR) technique. The films were pressed against a Zinc Selenide crystal that had been cleaned previously with methanol. Spectra were recorded with a Spectratech Allied Systems Fourier Transform Infra-Red Spectrometer, and stored in a computer. Peaks associated with pesticide residue were identified by inspection and peak areas were calculated by computer (Pesticide Peak Area, “PA”). A corresponding area for a Parafilm™ peak as similar as possible in peak location and size (in the same spectrum) was calculated (Film Peak Area, “FA”). […] A measure of the pesticide on the surface “P” was derived from the following calculation:
A relative measure of the amount of pesticide remaining after the above exposure to water was then derived from the following calculation: [formula]
Although the intensity of spectral peaks recorded with the ATR technique are very dependent on details of contact with the film, by obtaining a ratio of the pesticide peak to the film peak in the same spectral recording, different spectra can be compared with details of contact being compensated for, since they will have similar effects on the intensity of the pesticide absorption and the film absorption. The intensity of the pesticide peak relative to the film peak will depend on the degree of coverage of the film by the pesticide. To maximize coverage, the spraying was conducted twice. Furthermore, a wetting agent (surfactant) was included in the premix to promote wetting of the film by the spray droplets. Since exposure to water can result in re-distribution of the pesticide as well as wash-off of the pesticide, the measure of the amount remaining is only relative.
In all cases, a measured amount of pesticide was mixed with 270 grams of deionized water and 30 grams of 0.5% Silwet L-77 surfactant. This premix was divided into 50 gram portions. One portion was sprayed without adding polymer. For mixes containing polymer, 66.6 milligrams powder polymer or 1.32 g of a 5% solids dilution of the emulsion polymer were added to the 50 grams of premix.
TX-2 nozzle 12 inches above laboratory film.
58 psi (delivers 150 cc/minute).
Laboratory film moves at 1 mile/hour.
Fan nozzle 14 inches above laboratory film.
29 psi (Spray 15 cc with two passes over laboratory film at a rate to give 25 gallons/acre).

[2] = test system: beet armyworm; test: Beet Armyworm control under field conditions on Chinese kale; assay type: in vivo; details: 300 g of tebufenozide per hectare, compared to untreated control plot
Protocol: Each of two different plots of Chinese kale grown under typical field conditions was treated with one of the two tebufenozide formulations described above at an application rate of 300 g of tebufenozide per hectare in 750 liters of water per hectare. The percent beet armyworm mortality in each plot was compared to an untreated control plot.

[3] = test system: Beet Armyworm larvae; test: Beet Armyworm control on potted rice plants using tebufenozide; assay type: in vivo
From the text: Rice plants grown in pots were sprayed with one of two different versions of a 300 parts per million (based on active ingredient level) suspension of tebufenozide in water. In one version, the tebufenozide was supplied as Mimic® 10 W insecticide, a wettable powder, from Rohm and Haas Company. In the second version, approximately 30% by weight of the carrier in the Mimic® 10 W insecticide was replaced with Powder V from the above examples and approximately 10% by weight of the clay carrier was replaced by Aerosol®OTB surfactant. One portion of each of the sprayed plant samples was subjected to approximately 25 millimeters of water applied by a spray bar to simulate rain. The plants were cut and fed to Beet Armyworm larvae. Percent mortality was then evaluated.

[4] = test system: grape downy mildew caused by Plasmopara viticola; test: Grape field test of disease control with mancozeb fungicide; assay type: in vivo
Protocol: (§1) For grapes, single plant plots with three replicates/treatment were treated at seven day intervals, with a total of seven applications. Treatments were water-based spray mixtures of mancozeb with or without polymer additives added to the water shortly before spraying. The mixtures were applied with a backpack sprayer using carbon dioxide pressure atomization (45 psi) with a boom having three D3 (Cone) nozzles, at a rate of 640 liters/hectare. The treatments included a control with no fungicide applied, a full rate of mancozeb without additive (2.8 kg active ingredient/hectare), and a half rate of mancozeb (1.4 kg active ingredient/hectare) with or without additives. The polymer additives were used at ⅓ kg. of additive solids/kg. of active ingredient. The mancozeb formulation was a wettable powder with 75% active ingredient.
(§2) Assessments of percent infection (of grape downy mildew caused by Plasmopara viticola) of foliage were made 7 days after treatment # 7 (7DAT#7). These assessments are tabulated below. Data were analyzed by Duncan's multiple range test, using P=0.05.
(§3) Three different solid redispersible powders were evaluated; Powders I and II from the previous example and powder V, an all acrylic copolymer (Drycryl™DP-2904 redispersible powder, a cement modifier of the Rohm and Haas Company). Three different emulsion polymers were evaluated for comparison; Emulsion IV from the previous example; Emulsion VI, a poly(vinylacetate) emulsion (Rovace™ 117 emulsion from the Rohm and Haas Company, used as a general purpose adhesive component); and Emulsion VII, an acrylic emulsion polymer (Rhoplex™ 2438 emulsion from the Rohm and Haas Company, a component of elastomeric wall coatings).
(§4) In several of the evaluations, a surfactant was added to the spray mixture. When used, the surfactant was a solid powder of 90% dioctyl sodium sulfosuccinate and 10% sodium benzoate (Aerosol® OTB surfactant from Cytec Company).

[5] = test system: Cercospora arachidicola (Early Leaf Spot); test: Peanut field test of disease control with mancozeb fungicide; assay type: in vivo
Protocol: as §1, §2
Peanuts were evaluated the same as grapes except that the plots were 1 meter×5 meter (1 row), with 4 replicates per treatment, there were 9 applications, the boom had five D2 (C45) nozzles, the full rate of mancozeb was 1.6 kg active ingredient/hectare, the final assessment was 23 days after treatment #9 (23DAT#9), and the predominant disease at this time was Cercospora arachidicola (Early Leaf Spot).
as §3, §4

[6] = Half rate, Emulsion IV, no surfactant
[7] = Half rate, Emulsion VI, no surfactant
[8] = Half rate, Emulsion VI, with surfactant
[9] = Half rate, Emulsion VII, no surfactant
[10] = Half rate, Powder I, no surfactant
[11] = Half rate, Powder II, no surfactant
[12] = Half rate, Powder II, with surfactant
[13] = Half rate, Powder V, no surfactant

## CCCCC(C#N)(Cn1cncn1)c1ccc(Cl)cc1 (centres unmarked) [myclobutanil]
[1]; No Polymer
  % AI Retained After One Inch Spray-Bar Rain, M (mean): 13%
[1]; with Emulsion IV
  % AI Retained After One Inch Spray-Bar Rain, M (mean): 74%
[1]; with Powder I
  % AI Retained After One Inch Spray-Bar Rain, M (mean): 56%
[1]; with Powder II
  % AI Retained After One Inch Spray-Bar Rain, M (mean): 77%
[1]; with Powder III
  % AI Retained After One Inch Spray-Bar Rain, M (mean): 44%

## CCOc1cc(Oc2ccc(C(F)(F)F)cc2Cl)ccc1[N+](=O)[O-] [oxyfluorfen]
[1]; No Polymer
  % AI Retained After One Inch Spray-Bar Rain, M (mean): 17%
[1]; with Emulsion IV
  % AI Retained After One Inch Spray-Bar Rain, M (mean): 152%
[1]; with Powder I
  % AI Retained After One Inch Spray-Bar Rain, M (mean): 66%
[1]; with Powder II
  % AI Retained After One Inch Spray-Bar Rain, M (mean): 137%
[1]; with Powder III
  % AI Retained After One Inch Spray-Bar Rain, M (mean): 55%

## CCC(=O)Nc1ccc(Cl)c(Cl)c1 [propanil]
[1]; No Polymer
  % AI Retained After One Inch Spray-Bar Rain, M (mean): 9%
[1]; with Emulsion IV
  % AI Retained After One Inch Spray-Bar Rain, M (mean): 18%
[1]; with Powder I
  % AI Retained After One Inch Spray-Bar Rain, M (mean): 38%
[1]; with Powder II
  % AI Retained After One Inch Spray-Bar Rain, M (mean): 27%
[1]; with Powder III
  % AI Retained After One Inch Spray-Bar Rain, M (mean): 21%

## CCc1ccc(C(=O)NN(C(=O)c2cc(C)cc(C)c2)C(C)(C)C)cc1 [tebufenozide]
[2]
  Beet Armyworm Control (%): 35%
[1]; No Polymer
  % AI Retained After One Inch Spray-Bar Rain, M (mean): 40%
[1]; with Emulsion IV
  % AI Retained After One Inch Spray-Bar Rain, M (mean): 59%
[1]; with Powder I
  % AI Retained After One Inch Spray-Bar Rain, M (mean): 71%
[1]; with Powder II
  % AI Retained After One Inch Spray-Bar Rain, M (mean): 67%
[1]; with Powder III
  % AI Retained After One Inch Spray-Bar Rain, M (mean): 40%
[3]; With Rain (approximately 25 millimeters of water by spray bar), 300 parts per million suspension
  Beet Armyworm Mortality (%): 28%
[3]; Without Rain, rice plants sprayed with 300 parts per million suspension
  Beet Armyworm Mortality (%): 90%

## dinitro-(1-methylheptyl) phenyl crotonate [dinocap]
[1]; No Polymer
  % AI Retained After One Inch Spray-Bar Rain, M (mean): 3%
[1]; with Emulsion IV
  % AI Retained After One Inch Spray-Bar Rain, M (mean): 40%
[1]; with Powder I
  % AI Retained After One Inch Spray-Bar Rain, M (mean): 49%
[1]; with Powder II
  % AI Retained After One Inch Spray-Bar Rain, M (mean): 47%
[1]; with Powder III
  % AI Retained After One Inch Spray-Bar Rain, M (mean): 19%

## mancozeb
[4]; Full rate (2.8 kg active ingredient/hectare), no polymer additive, no surfactant
  Infection on Grape 7DAT#7: 41.7 cd percent
[4]; Half rate (1.4 kg active ingredient/hectare), no polymer additive, no surfactant
  Infection on Grape 7DAT#7: 63.3 b percent
[4]; [6]
  Infection on Grape 7DAT#7: 38.3 de percent
[4]; [7]
  Infection on Grape 7DAT#7: 43.3 cd percent
[4]; [8]
  Infection on Grape 7DAT#7: 31.7 fg percent
[4]; [9]
  Infection on Grape 7DAT#7: 41.7 cd percent
[4]; [10]
  Infection on Grape 7DAT#7: 46.7 c percent
[4]; [11]
  Infection on Grape 7DAT#7: 43.3 cd percent
[4]; [12]
  Infection on Grape 7DAT#7: 28.3 g percent
[4]; [13]
  Infection on Grape 7DAT#7: 46.7 c percent
[5]; Full rate (1.6 kg active ingredient/hectare), no polymer additive, no surfactant
  Infection on Peanut 23DAT#9: 27.5 cd percent
[5]; [6]
  Infection on Peanut 23DAT#9: 25.0 de percent
[5]; [7]
  Infection on Peanut 23DAT#9: 22.5 ef percent
[5]; [8]
  Infection on Peanut 23DAT#9: 13.8 h percent
[5]; [9]
  Infection on Peanut 23DAT#9: 21.3 f percent
[5]; [10]
  Infection on Peanut 23DAT#9: 23.8 ef percent
[5]; [11]
  Infection on Peanut 23DAT#9: 32.5 c percent
[5]; [12]
  Infection on Peanut 23DAT#9: 17.5 g percent
[5]; [13]
  Infection on Peanut 23DAT#9: 22.5 ef percent
[5]; Half rate, no polymer additive, no surfactant
  Infection on Peanut 23DAT#9: 41.3 b percent

## manganese ethylenebisdithiocarbamate [maneb]
[1]; No Polymer
  % AI Retained After One Inch Spray-Bar Rain, M (mean): 16%
[1]; with Emulsion IV
  % AI Retained After One Inch Spray-Bar Rain, M (mean): 103%
[1]; with Powder I
  % AI Retained After One Inch Spray-Bar Rain, M (mean): 76%
[1]; with Powder II
  % AI Retained After One Inch Spray-Bar Rain, M (mean): 108%
[1]; with Powder III
  % AI Retained After One Inch Spray-Bar Rain, M (mean): 86%
